Source: ChEMBL document CHEMBL1123770, “Systematic synthesis and biological evaluation of alpha- and beta-D-lyxofuranosyl nucleosides of the five naturally occurring nucleic acid bases” (1987)
Converted amounts (≈) assume the structure as drawn.

What was measured:
[1] = Minimum cytotoxic concentration (MCC) required to cause a microscopically detectable alteration of host cell morphology, when incubated with PRK cells; format: functional; conditions: Oryctolagus cuniculus
WI-38 [2] = assay: Minimum cytotoxic concentration (MCC) required to cause a microscopically detectable alteration of host cell morphology, when incubated with WI-38 cells; format: functional; conditions: Homo sapiens
Oryctolagus cuniculus [3] = species on record: Oryctolagus cuniculus; assay: Minimum inhibitory concentration (MIC) required to reduce virus-induced cytopathogenicity by 50% against KOS strain of Herpes simplex virus-1 in primary rabbit kidney cells; format: functional
WI-38 [4] = assay: Minimum inhibitory concentration (MIC) required to reduce virus-induced cytopathogenicity by 50% against Rhinovirus 9 in human diploid (WI-38)cells; format: functional; conditions: Homo sapiens; read-out: MIC
Oryctolagus cuniculus [5] = species on record: Oryctolagus cuniculus; assay: Minimum inhibitory concentration (MIC) required to reduce virus-induced cytopathogenicity by 50% against Vesicular stomatitis virus in primary rabbit kidney cells; format: functional
Human respirovirus 3 = assay: (§1) Minimum inhibitory concentration (MIC) required to reduce virus-induced cytopathogenicity by 50% against Parainfluenza virus-3 in African green monkey kidney (Vero B)cells; format: functional
Vero [6] = assay: Minimum inhibitory concentration (MIC) required to reduce virus-induced cytopathogenicity by 50% against Sindbis virus in African green monkey kidney (Vero B)cells; format: functional; conditions: Chlorocebus sabaeus
Vero [7] = assay: Minimum inhibitory concentration (MIC) required to reduce virus-induced cytopathogenicity by 50% against Coxsackie virus B4 in African green monkey kidney (Vero B)cells; format: functional, Chlorocebus sabaeus; conditions: Chlorocebus sabaeus; read-out: MIC
HeLa [8] = assay: Minimum cytotoxic concentration (MCC) required to cause a microscopically detectable alteration of host cell morphology, when incubated with HeLa cells; format: functional; conditions: Homo sapiens
Oryctolagus cuniculus [9] = species on record: Oryctolagus cuniculus; assay: Minimum inhibitory concentration (MIC) required to reduce virus-induced cytopathogenicity by 50% against G strain of Herpes simplex virus-2 in primary rabbit kidney cells; format: functional; conditions: Oryctolagus cuniculus; read-out: MIC
HeLa [10] = assay: Minimum inhibitory concentration (MIC) required to reduce virus-induced cytopathogenicity by 50% against Coxsackie virus B4 in HeLa cells; format: functional; conditions: Homo sapiens
Oryctolagus cuniculus [11] = species on record: Oryctolagus cuniculus; assay: Minimum inhibitory concentration (MIC) required to reduce virus-induced cytopathogenicity by 50% against Vaccinia virus in primary rabbit kidney cells; format: functional; conditions: Oryctolagus cuniculus; read-out: MIC
Vero [12] = assay: Minimum inhibitory concentration (MIC) required to reduce virus-induced cytopathogenicity by 50% against Reo virus-1 in African green monkey kidney (Vero B)cells; format: functional, Chlorocebus sabaeus; conditions: Chlorocebus sabaeus; read-out: MIC
Vero [13] = assay: (§2) Minimum inhibitory concentration (MIC) required to reduce virus-induced cytopathogenicity by 50% against forest virus in African green monkey kidney (Vero B)cells; format: functional; conditions: Chlorocebus sabaeus
Vero [14] = assay: Minimum cytotoxic concentration (MCC) required to cause a microscopically detectable alteration of host cell morphology, when incubated with Vero B cells; format: functional; conditions: Chlorocebus sabaeus
WI-38 [15] = assay: Minimum inhibitory concentration (MIC) required to reduce virus-induced cytopathogenicity by 50% against Rhinovirus-1A in human diploid (WI-38)cells; format: functional
HeLa [16] = assay: Minimum inhibitory concentration (MIC) required to reduce virus-induced cytopathogenicity by 50% against Vesicular stomatitis virus in HeLa cells; format: functional; conditions: Homo sapiens
Mus musculus [17] = species on record: Mus musculus; assay: Number of mice dead, after HSV-2 infection observed from day 12 to day 20; format: functional
[18] = Inhibitory effect on 196 strain of Herper simplex virus-2 yield, in primary rabbit kidney cell culture 40 ug/mL concentration after 24 hours.; format: functional, Oryctolagus cuniculus
[19] = Inhibitory effect on 196 strain of Herper simplex virus-2 yield, in primary rabbit kidney cell culture 40 ug/mL concentration after 48 hours.; format: functional, Oryctolagus cuniculus
Mus musculus [20] = species on record: Mus musculus; assay: Number of mice dead, after HSV-1 infection observed from day 12 to day 20; format: functional
[21] = Inhibitory effect on 196 strain of Herper simplex virus-2 yield, in primary rabbit kidney cell culture 10 ug/mL concentration after 24 hours.; format: functional, Oryctolagus cuniculus
[22] = Inhibitory effect on KOS strain of Herper simplex virus-1 yield, in primary rabbit kidney cell culture at 40 ug/mL concentration after 24 hours; format: functional, Oryctolagus cuniculus
[23] = Inhibitory effect on KOS strain of Herper simplex virus-1 yield, in primary rabbit kidney cell culture at 4 ug/mL concentration after 24 hours; format: functional, Oryctolagus cuniculus
[24] = Inhibitory effect on KOS strain of Herper simplex virus-1 yield, in primary rabbit kidney cell culture at 10 ug/mL concentration after 24 hours; format: functional, Oryctolagus cuniculus
Mus musculus [25] = species on record: Mus musculus; assay: Survival rate at 20th day expressed as number of mice survived infected with HSV-1; out of 10; format: functional
[26] = Inhibitory effect on KOS strain of Herper simplex virus-1 yield, in primary rabbit kidney cell culture 10 ug/mL concentration after 48 hours.; format: functional, Oryctolagus cuniculus
[27] = Inhibitory effect on 196 strain of Herper simplex virus-2 yield, in primary rabbit kidney cell culture 4 ug/mL concentration after 24 hours.; format: functional, Oryctolagus cuniculus
Mus musculus [28] = species on record: Mus musculus; assay: Number of mice with skin lesions plus paralysis, after HSV-1 infection observed from day 12 to day 20; format: functional
[29] = Inhibitory effect on KOS strain of Herper simplex virus-1 yield, in primary rabbit kidney cell culture 4 ug/mL concentration after 48 hours.; format: functional, Oryctolagus cuniculus
Mus musculus [30] = species on record: Mus musculus; assay: Number of mice normal, without lesion after HSV-1 infection observed from day 0 to day 3; format: functional
Mus musculus [31] = species on record: Mus musculus; assay: Number of mice normal, without lesion after HSV-2 infection observed from day 12 to day 20; format: functional
Mus musculus [32] = species on record: Mus musculus; assay: Number of mice normal, without lesion after HSV-2 infection observed from day 0 to day 3; format: functional
[33] = Inhibitory effect on 196 strain of Herper simplex virus-2 yield, in primary rabbit kidney cell culture 10 ug/mL concentration after 48 hours.; format: functional, Oryctolagus cuniculus
[34] = Inhibitory effect on 196 strain of Herper simplex virus-2 yield, in primary rabbit kidney cell culture 4 ug/mL concentration after 48 hours.; format: functional, Oryctolagus cuniculus
[35] = Inhibitory effect on KOS strain of Herper simplex virus-1 yield, in primary rabbit kidney cell culture 40 ug/mL concentration after 48 hours.; format: functional, Oryctolagus cuniculus
Mus musculus [36] = species on record: Mus musculus; assay: Number of mice normal, without lesion after HSV-1 infection observed from day 12 to day 20; format: functional
Mus musculus [37] = species on record: Mus musculus; assay: Survival rate at 20th day expressed as number of mice survived infected with HSV-2; out of 10; format: functional
Vero [38] = assay: as §1; format: functional, Chlorocebus sabaeus; conditions: Chlorocebus sabaeus; read-out: MIC
Monkey = assay: as §2; format: functional, Chlorocebus sabaeus; conditions: Cercopithecidae
[39] = Inhibitory effect on 196 strain of Herper simplex virus-2 yield, in primary rabbit kidney cell culture 0.1 ug/mL concentration after 48 hours.; format: functional, Oryctolagus cuniculus
[40] = Inhibitory effect on 196 strain of Herper simplex virus-2 yield, in primary rabbit kidney cell culture 0.04 ug/mL concentration after 48 hours.; format: functional, Oryctolagus cuniculus
[41] = Inhibitory effect on KOS strain of Herper simplex virus-1 yield, in primary rabbit kidney cell culture at 0.4 ug/mL concentration after 24 hours; format: functional, Oryctolagus cuniculus
[42] = Inhibitory effect on 196 strain of Herper simplex virus-2 yield, in primary rabbit kidney cell culture 1 ug/mL concentration after 48 hours.; format: functional, Oryctolagus cuniculus
[43] = Inhibitory effect on KOS strain of Herper simplex virus-1 yield, in primary rabbit kidney cell culture 1 ug/mL concentration after 48 hours.; format: functional, Oryctolagus cuniculus
[44] = Inhibitory effect on 196 strain of Herper simplex virus-2 yield, in primary rabbit kidney cell culture 0.4 ug/mL concentration after 48 hours.; format: functional, Oryctolagus cuniculus
[45] = Inhibitory effect on KOS strain of Herper simplex virus-1 yield, in primary rabbit kidney cell culture at 1 ug/mL concentration after 24 hours; format: functional, Oryctolagus cuniculus
[46] = Inhibitory effect on KOS strain of Herper simplex virus-1 yield, in primary rabbit kidney cell culture 0.1 ug/mL concentration after 48 hours.; format: functional, Oryctolagus cuniculus
[47] = Inhibitory effect on KOS strain of Herper simplex virus-1 yield, in primary rabbit kidney cell culture at 0.04 ug/mL concentration after 24 hours; format: functional, Oryctolagus cuniculus
[48] = Inhibitory effect on 196 strain of Herper simplex virus-2 yield, in primary rabbit kidney cell culture 0.1 ug/mL concentration after 24 hours.; format: functional, Oryctolagus cuniculus
[49] = Inhibitory effect on 196 strain of Herper simplex virus-2 yield, in primary rabbit kidney cell culture 1 ug/mL concentration after 24 hours.; format: functional, Oryctolagus cuniculus
[50] = Inhibitory effect on KOS strain of Herper simplex virus-1 yield, in primary rabbit kidney cell culture at 0.1 ug/mL concentration after 24 hours; format: functional, Oryctolagus cuniculus
[51] = Inhibitory effect on KOS strain of Herper simplex virus-1 yield, in primary rabbit kidney cell culture 0.4 ug/mL concentration after 48 hours.; format: functional, Oryctolagus cuniculus
[52] = Inhibitory effect on 196 strain of Herper simplex virus-2 yield, in primary rabbit kidney cell culture 0.04 ug/mL concentration after 24 hours.; format: functional, Oryctolagus cuniculus
[53] = Inhibitory effect on 196 strain of Herper simplex virus-2 yield, in primary rabbit kidney cell culture 0.4 ug/mL concentration after 24 hours.; format: functional, Oryctolagus cuniculus
[54] = Inhibitory effect on KOS strain of Herper simplex virus-1 yield, in primary rabbit kidney cell culture 0.04 ug/mL concentration after 48 hours.; format: functional, Oryctolagus cuniculus

## Nc1nccc2c1ncn2[C@@H]1C[C@H](CO)[C@@H](O)[C@H]1O [3-DEAZAARISTEROMYCIN A]
[1]
  MCC: > 400 µg/mL
WI-38 [2]
  MCC: > 400 µg/mL
Oryctolagus cuniculus [3]
  MIC: > 400 µg/mL
WI-38 [4]
  MIC: > 400 µg/mL
Oryctolagus cuniculus [5]
  MIC: 0.2 µg/mL (≈ 0.757 µM)
Human respirovirus 3
  MIC: 0.7 µg/mL (≈ 2.65 µM)
Vero [6]
  MIC: 70 µg/mL (≈ 265 µM)
Vero [7]
  MIC: 0.04 µg/mL (≈ 0.151 µM)
HeLa [8]
  MCC: > 400 µg/mL
Oryctolagus cuniculus [9]
  MIC: 150 µg/mL (≈ 568 µM)
HeLa [10]
  MIC: > 400 µg/mL
Oryctolagus cuniculus [11]
  MIC: 0.7 µg/mL (≈ 2.65 µM)
Vero [12]
  MIC: 1 µg/mL (≈ 3.78 µM)
Vero [13]
  MIC: > 200 µg/mL
Vero [14]
  MCC: > 400 µg/mL
WI-38 [15]
  MIC: > 400 µg/mL
HeLa [16]
  MIC: 0.7 µg/mL (≈ 2.65 µM)

## Nc1ncnc2c1ncn2[C@@H]1O[C@H](CO)[C@@H](O)[C@H]1O [ADENOSINE]
Mus musculus [17]
  No. of mice: 7
[18]
  Virus yield: <1.6 log pfu ml-1
[19]
  Virus yield: 4.3 log pfu ml-1
Mus musculus [20]
  No. of mice: 6
[21]
  Virus yield: 4.7 log pfu ml-1
[22]
  Virus yield: 3 log pfu ml-1
[23]
  Virus yield: 6.7 log pfu ml-1
[24]
  Virus yield: 5.7 log pfu ml-1
Mus musculus [25]
  Survival rate: 4
[26]
  Virus yield: 6.8 log pfu ml-1
[27]
  Virus yield: 5 log pfu ml-1
Mus musculus [28]
  No. of mice: 1
[29]
  Virus yield: 6.8 log pfu ml-1
Mus musculus [30]
  No. of mice: 10
Mus musculus [31]
  No. of mice: 3
Mus musculus [32]
  No. of mice: 10
[33]
  Virus yield: 5.2 log pfu ml-1
[34]
  Virus yield: 5.7 log pfu ml-1
[35]
  Virus yield: 5.5 log pfu ml-1
Mus musculus [36]
  No. of mice: 3
Mus musculus [37]
  Survival rate: 3

## Cc1cn([C@@H]2O[C@H](CO)[C@H](O)[C@@H]2O)c(=O)[nH]c1=O
[1]
  MCC: > 400 µg/mL
WI-38 [2]
  MCC: > 400 µg/mL
Oryctolagus cuniculus [3]
  MIC: > 400 µg/mL
WI-38 [4]
  MIC: > 150 µg/mL
Vero [38]
  MIC: > 400 µg/mL
Vero [6]
  MIC: > 400 µg/mL
Vero [7]
  MIC: > 400 µg/mL
HeLa [8]
  MCC: > 400 µg/mL
Monkey
  MIC: > 400 µg/mL
Oryctolagus cuniculus [9]
  MIC: > 400 µg/mL
HeLa [10]
  MIC: > 400 µg/mL
Vero [12]
  MIC: > 400 µg/mL
Vero [14]
  MCC: > 400 µg/mL
WI-38 [15]
  MIC: > 400 µg/mL

## Nc1nc2c(ncn2COCCO)c(=O)[nH]1 [ACYCLOVIR]
[39]
  Virus yield: 5.6 log pfu ml-1
[40]
  Virus yield: 5.7 log pfu ml-1
[41]
  Virus yield: 4.1 log pfu ml-1
[42]
  Virus yield: 5.3 log pfu ml-1
[23]
  Virus yield: 2 log pfu ml-1
[43]
  Virus yield: 5.3 log pfu ml-1
[44]
  Virus yield: 5 log pfu ml-1
Mus musculus [25]
  Survival rate: 10
[45]
  Virus yield: 3.6 log pfu ml-1
[46]
  Virus yield: 5.6 log pfu ml-1
[47]
  Virus yield: 5.6 log pfu ml-1
[27]
  Virus yield: <2 log pfu ml-1
[29]
  Virus yield: 3.3 log pfu ml-1
[48]
  Virus yield: 4.8 log pfu ml-1
Mus musculus [30]
  No. of mice: 10
Mus musculus [31]
  No. of mice: 5
[49]
  Virus yield: 3.1 log pfu ml-1
[50]
  Virus yield: 5.2 log pfu ml-1
Mus musculus [32]
  No. of mice: 10
[51]
  Virus yield: 5 log pfu ml-1
[34]
  Virus yield: 3.8 log pfu ml-1
[52]
  Virus yield: 5.8 log pfu ml-1
Mus musculus [36]
  No. of mice: 10
[53]
  Virus yield: 4.1 log pfu ml-1
[54]
  Virus yield: 5.9 log pfu ml-1
Mus musculus [37]
  Survival rate: 5
